Results reported in patent US10377709B2, “Carboxamide derivatives and the use thereof as medicaments for the treatment of hepatitis B” (Janssen Sciences Ireland UC, priority 2013, dated 2019).

Columns and labels:
HBV [1] = assay: Anti-HBV activity in HepG2.117 inducible HBV producing cell line (intracellular HBV DNA, realtime PCR); assay type: cell-based, Hepatitis B virus; conditions: HepG2.117 cells (Tet-off), 3 days of treatment, intracellular HBV DNA by realtime PCR
HepG2 cells = assay: Cytotoxicity in HepG2 cells (Resazurin assay); assay type: cell-based; conditions: incubated 4 days, viability by Resazurin assay
HBV [2] = assay: Anti-HBV activity in HepG2.2.15 stable transfected cell line (HBV DNA from secreted virions, realtime PCR); assay type: cell-based, Hepatitis B virus; conditions: HepG2.2.15 cells; 6 days of treatment; HBV DNA from secreted virions by realtime PCR
[3] = Cytotoxicity in HepG2 cells (Resazurin assay); assay type: cell-based; conditions: human, incubated 4 days, viability by Resazurin assay

## Cc1cc(NC(=O)C2CC(C)N(C(=O)C(=O)NC3(C)COC3)C2)ccc1F (single isomer, unassigned) [Compound 17d, N-(4-fluoro-3-methylphenyl)-5-methyl-1-(2-((3-methyloxetan-3-yl)amino)-2-oxoacetyl)pyrrolidine-3-carboxamide]
HBV [1]
  EC50: 32 nM
HepG2 cells
  CC50: > 25000 nM
HBV [2]
  EC50: 70 nM

## CC(C)NC(=O)C(=O)N1CCC(C(=O)Nc2cc(F)c(F)c(Cl)c2)[C@@H]1C (single isomer, unassigned) [Compound 29b]
HBV [1]
  EC50: > 1000 nM
HepG2 cells
  CC50: > 25000 nM
HBV [2]
  EC50: > 1000 nM

## CC1C(C(=O)Nc2ccc(F)c(Cl)c2F)CCCN1C(=O)C(=O)N[C@H](C)C(F)(F)F (single isomer, unassigned) [Compound 35b]
HBV [1]
  EC50: 483 nM
HepG2 cells
  CC50: > 25000 nM
HBV [2]
  EC50: 195 nM

## CC1C(C(=O)Nc2ccc(F)c(Cl)c2F)CCCN1C(=O)C(=O)N[C@H](C)C(F)(F)F (single isomer, unassigned) [Compound 35c]
HBV [1]
  EC50: > 1000 nM
HepG2 cells
  CC50: > 25000 nM
HBV [2]
  EC50: > 1000 nM

## CC1C(C(=O)Nc2ccc(F)c(Cl)c2F)CCCN1C(=O)C(=O)N[C@H](C)C(F)(F)F (single isomer, unassigned) [Compound 35d]
HBV [1]
  EC50: > 1000 nM
HepG2 cells
  CC50: > 25000 nM
HBV [2]
  EC50: > 1000 nM

## C[C@@H](NC(=O)C(=O)N1CC[C@H](C(=O)Nc2cc(F)c(F)c(F)c2)C1)C(F)(F)F [Compound 32, (3S)-1-[2-oxo-2-[[(1R)-2,2,2-trifluoro-1-methyl-ethyl]amino]acetyl]-N-(3,4,5-trifluorophenyl)pyrrolidine-3-carboxamide]
HBV [1]; Hepatitis B virus, HepG2.117, 72 h
  EC50: 52 nM
[3]
  CC50 at 4 days: > 25000 nM
other
  melting point: 197.3 °C
